# Measured values from patent US8518947B2, “(Heterocycle/tetrahydropyridine)-(piperazinyl)-1-alcanone and (heterocycle/dihydropyrrolidine)-(piperazinyl)-1-alcanone derivatives, and use thereof as p75 inhibitors” (Sanofi, priority 2009, dated 2013).
# Counter-ions that a name gives are not always drawn.
row,SMILES,melting point [°C]
1,O=C(CN1CC2CCC(C1)N2c1ncc(F)cn1)N1CC=C(c2cccc3ccsc23)CC1,112 to 113
2,Cn1nnnc1-c1ccc(N2C3CCC2CN(CC(=O)N2CC=C(c4cccc5ccoc45)CC2)C3)nc1,178 to 180
3,Cc1cc2cc(C3=CCN(C(=O)CN4CC5CCC(C4)N5c4ncc(F)cn4)CC3)ccc2s1,177 to 179
4,O=C(CN1CC2CCC(C1)N2c1ncc(F)cn1)N1CC=C(c2cccc3ccoc23)CC1,157 to 158
5,O=C(CN1CC2CCC(C1)N2c1ncc(F)cn1)N1CC=C(c2ccc3c(c2)OCCO3)CC1,163 to 165
6,O=C(CN1CC2CCC(C1)N2c1ncc(F)cn1)N1CC=C(c2nccc3sccc23)CC1,167 to 168
7,O=C(CN1CC2CCC(C1)N2c1ncc(F)cn1)N1CC=C(c2coc3ccccc23)CC1,207 to 210
8,O=C(CN1CC2CCC(C1)N2c1ncc(F)cn1)N1CC=C(c2csc3ccccc23)CC1,172 to 174
9,COC(=O)c1ccc(N2C3CCC2CN(CC(=O)N2CC=C(c4cccc5ccoc45)CC2)C3)nc1,158 to 159
10,COC(=O)c1ccc(N2C3CCC2CN(CC(=O)N2CC=C(c4cccc5ccsc45)CC2)C3)nc1,153 to 154
11,COC(=O)c1ccc(N2C3CCC2CN(CC(=O)N2CC=C(c4ccc5sccc5c4)CC2)C3)nc1,150 to 151
12,COC(=O)c1ccc(N2C3CCC2CN(CC(=O)N2CC=C(c4nccc5sccc45)CC2)C3)nc1,170 to 171
13,COC(=O)c1ccc(N2C3CCC2CN(CC(=O)N2CC=C(c4ccc5sc(C)cc5c4)CC2)C3)nc1,179 to 180
14,O=C(O)c1ccc(N2C3CCC2CN(CC(=O)N2CC=C(c4nccc5sccc45)CC2)C3)nc1,159 to 160
15,Cc1cc2cc(C3=CCN(C(=O)CN4CC5CCC(C4)N5c4ccc(C(=O)O)cn4)CC3)ccc2s1,160 to 161
16,COC(=O)c1ccc(N2C3CCC2CN(CC(=O)N2CC=C(c4cccc5ccoc45)C2)C3)nc1,169 to 170
17,COC(=O)c1ccc(N2C3CCC2CN(CC(=O)N2CC=C(c4cccc5ccsc45)C2)C3)nc1,172 to 173
18,O=C(O)c1ccc(N2C3CCC2CN(CC(=O)N2CC=C(c4cccc5ccoc45)C2)C3)nc1,188 to 189
19,O=C(O)c1ccc(N2C3CCC2CN(CC(=O)N2CC=C(c4cccc5ccsc45)C2)C3)nc1,189 to 190
20,COC(=O)c1ccc(N2C3CCC2CN(CC(=O)N2CC=C(c4ccc5c(c4)OCCO5)CC2)C3)nc1,172 to 174
21,O=C(CN1CC2CCC(C1)N2c1ccc(-c2noc(=O)[nH]2)cn1)N1CC=C(c2cccc3ccoc23)CC1,230 to 232
22,Cc1cc2cc(C3=CCN(C(=O)CN4CC5CCC(C4)N5c4ccc(C#N)cn4)CC3)ccc2s1,171 to 172
23,O=C(CN1CC2CCC(C1)N2c1cccnc1)N1CC=C(c2cccc3ccoc23)CC1,121 to 123

row,SMILES,melting point [°C]
1,N#Cc1ccc(N2C3CCC2CN(CC(=O)N2CC=C(c4cccc5ccoc45)CC2)C3)nc1,184 to 185
2,Cc1cc2cc(C3=CCN(C(=O)CN4CC5CCC(C4)N5c4ccc(C(=O)OC5CCC5)cn4)CC3)ccc2s1,153 to 154
3,"C[C@@H]1CN(c2ccc3ccccc3n2)C[C@H](C)N1CC(=O)N1CC=C(c2cccc3ccsc23)CC1 (as salt: HCl) [Compound 19, 1-(4-benzo[b]thiophen-7-yl-3,6-dihydro-2H-pyridin-1-yl)-2-((2S,6R)-2,6-dimethyl-4-quinolin-2-ylpiperazin-1-yl)ethanone]",192 to 193
4,"C[C@@H]1CN(c2ncc(F)cn2)C[C@H](C)N1CC(=O)N1CC=C(c2cccc3ccoc23)CC1 (as salt: HCl) [Compound 36, 1-(4-benzofuran-7-yl-3,6-dihydro-2H-pyridin-1-yl)-2-[(2S,6R)-4-(5-fluoropyrimidin-2-yl)-2,6-dimethylpiperazin-1-yl]ethanone]",174 to 175
5,"C[C@@H]1CN(c2ccc(C(F)(F)F)nc2)C[C@H](C)N1CC(=O)N1CC=C(c2cccc3ccsc23)CC1 (as salt: HCl) [Compound 54, 1-(4-benzo[b]thiophen-7-yl-3,6-dihydro-2H-pyridin-1-yl)-2-[(2S,6R)-2,6-dimethyl-4-(6-trifluoromethylpyridin-3-yl)piperazin-1-yl)ethanone]",225 to 226
6,"COC(=O)c1ccc(N2C[C@@H](C)N(CC(=O)N3CC=C(c4cccc5ccsc45)CC3)[C@@H](C)C2)nc1 (as salt: HCl) [Compound 58, Methyl 6-{(3S,5R)-4-[2-(4-benzo[b]thiophen-7-yl-3,6-dihydro-2H-pyridin-1-yl)-2-oxoethyl]-3,5-dimethylpiperazin-1-yl}nicotinate]",208 to 210
7,"COC(=O)c1cc2cccc(C3=CCN(C(=O)CN4[C@H](C)CN(c5ccc(C(F)(F)F)cn5)C[C@@H]4C)CC3)c2s1 (as salt: HCl) [Compound 66, Methyl 7-(1-{2-[(2S,6R)-2,6-dimethyl-4-(5-trifluoromethylpyridin-2-yl)piperazin-1-yl]acetyl}-1,2,3,6-tetrahydropyridin-4-yl)benzo[b]thiophene-2-carboxylate]",138 to 141
8,O=C(CN1CC2CCC(C1)N2c1ncc(F)cn1)N1CC=C(c2c[nH]c3cc(F)ccc23)CC1 (as salt: oxalate),95 to 96
9,"C[C@@H]1CN(c2ncc(F)cn2)C[C@H](C)N1CC(=O)N1CC=C(c2ccc3c(c2)OCCO3)CC1 (as salt: oxalate) [Compound 44, 1-[4-(2,3-dihydrobenzo[1,4]dioxin-6-yl)-3,6-dihydro-2H-pyridin-1-yl]-2-[(2S,6R)-4-(5-fluoropyrimidin-2-yl)-2,6-dimethylpiperazin-1-yl]ethanone]",90 to 91
10,"O=C(CN1CCCN(c2cccnc2)CC1)N1CC=C(c2cccc3ccoc23)CC1 (as salt: oxalate) [Compound 78, 1-(4-benzofuran-7-yl-3,6-dihydro-2H-pyridin-1-yl)-2-(4-pyridin-3-yl-[1,4]diazepan-1-yl)ethanone]",100 to 101
11,"O=C(CN1CCN(c2ccnc3cc(Cl)ccc23)CC1)N1CC=C(c2cccc3ccoc23)CC1 (as salt: oxalate) [Compound 99, 1-(4-benzofuran-7-yl-3,6-dihydro-2H-pyridin-1-yl)-2-[4-(7-chloroquinolin-4-yl)piperazin-1-yl]ethanone]",99 to 100
12,"C[C@@H]1CN(c2ccc(-c3nccs3)cn2)C[C@H](C)N1CC(=O)N1CC=C(c2cccc3ccoc23)CC1 (as salt: oxalate) [Compound 119, 1-(4-benzofuran-7-yl-3,6-dihydro-2H-pyridin-1-yl)-2-[(2S,6R)-2,6-dimethyl-4-(5-thiazol-2-ylpyridin-2-yl)piperazin-1-yl]ethanone]",140 to 145
13,"C[C@@H]1CN(c2ccc(-c3nnn(C)n3)cn2)C[C@H](C)N1CC(=O)N1CC=C(c2cccc3ccoc23)CC1 (as salt: oxalate) [Compound 120, 1-(4-benzofuran-7-yl-3,6-dihydro-2H-pyridin-1-yl)-2-{(2S,6R)-2,6-dimethyl-4-[5-(2-methyl-2H-tetrazol-5-yl)pyridin-2-yl]piperazin-1-yl}ethanone]",165 to 170
14,O=C(O)c1ccc(N2C3CCC2CN(CC(=O)N2CC=C(c4cccc5ccsc45)CC2)C3)nc1 [71],121 to 122
15,O=C(O)c1ccc(N2C3CCC2CN(CC(=O)N2CC=C(c4cccc5ccsc45)CC2)C3)nc1 [85],191 to 192
16,"O=C(CN1CCN(c2ccc(C(F)(F)F)cn2)CC1)N1CC=C(c2ccc3c(c2)OCCO3)CC1 [Compound 21, 1-[4-(2,3-dihydrobenzo[1,4]dioxin-6-yl)-3,6-dihydro-2H-pyridin-1-yl]-2-[4-(5-trifluoromethylpyridin-2-yl)piperazin-1-yl]ethanone]",142 to 143
17,"O=C(CN1CCN(c2ccc(C(F)(F)F)cn2)C(=O)C1)N1CC=C(c2c[nH]c3ccccc23)CC1 [Compound 30, 4-{2-[4-(1H-indol-3-yl)-3,6-dihydro-2H-pyridin-1-yl]-2-oxoethyl}-1-(5-trifluoromethylpyridin-2-yl)piperazin-2-one]",230 to 233
18,"O=C(CN1CCN(c2ccc(C(F)(F)F)cn2)C(=O)C1)N1CC=C(c2cccc3ccsc23)CC1 [Compound 31, 4-[2-(4-benzo[b]thiophen-7-yl-3,6-dihydro-2H-pyridin-1-yl)-2-oxoethyl]-1-(5-trifluoromethylpyridin-2-yl)piperazin-2-one]",143 to 146
19,"O=C(CN1CCN(c2ccc(C(F)(F)F)cn2)C(=O)C1)N1CC=C(c2cccc3ccoc23)CC1 [Compound 32, 4-[2-(4-benzofuran-7-yl-3,6-dihydro-2H-pyridin-1-yl)-2-oxoethyl]-1-(5-trifluoromethylpyridin-2-yl)piperazin-2-one]",151 to 152
20,"O=C(CN1CCN(c2ccc(C(F)(F)F)cn2)CC1)N1CC=C(c2cccc3ccoc23)CC1 [Compound 33, 1-(4-benzofuran-7-yl-3,6-dihydro-2H-pyridin-1-yl)-2-[4-(5-trifluoromethylpyridin-2-yl)piperazin-1-yl]ethanone]",155 to 156
21,"C[C@@H]1CN(c2cncnc2)C[C@H](C)N1CC(=O)N1CC=C(c2cccc3ccoc23)CC1 [Compound 35, 1-(4-benzofuran-7-yl-3,6-dihydro-2H-pyridin-1-yl)-2-((2S,6R)-2,6-dimethyl-4-pyrimidin-5-ylpiperazin-1-yl)ethanone]",142 to 143
22,"C[C@@H]1CN(c2ccc(C(F)(F)F)nc2)C[C@H](C)N1CC(=O)N1CC=C(c2cccc3ccoc23)CC1 [Compound 37, 1-(4-benzofuran-7-yl-3,6-dihydro-2H-pyridin-1-yl)-2-[(2S,6R)-2,6-dimethyl-4-(6-trifluoromethylpyridin-3-yl)piperazin-1-yl]ethanone]",119 to 120
23,"Cc1cc2cc(C3=CCN(C(=O)CN4[C@H](C)CN(c5ncc(F)cn5)C[C@@H]4C)CC3)ccc2s1 [Compound 38, 2-[(2S,6R)-4-(5-fluoropyrimidin-2-yl)-2,6-dimethylpiperazin-1-yl]-1-[4-(2-methylbenzo[b]thiophen-5-yl)-3,6-dihydro-2H-pyridin-1-yl]ethanone]",205 to 206
